Test results as given in paper PMC4941645, “Oxidative Stress Induced by Pt(IV) Pro-drugs Based on the Cisplatin Scaffold and Indole Carboxylic Acids in Axial Position” (Scientific Reports, 2016).

Key:
[1] = tested on: BxPC3 pancreatic carcinoma cells; experiment: MTT cytotoxicity test, BxPC3; format: cell-based, human; conditions: BxPC3, 72 h, MTT, ± S.D.
Experimental: (§1) The cytotoxic activity of the complexes and of the uncoordinated ligands was evaluated by the MTT test on a panel of human tumor cell lines containing examples of pancreatic (BxPC3), colorectal (HCT-15), breast (MCF-7), cervical (A431), and lung (A549) cancers as well as of melanoma (A375). For comparison purposes, the cytotoxicity of cisplatin was evaluated under the same experimental conditions.
(§2) Cisplatin was dissolved in 0.9% NaCl solution.
(§3) Human breast (MCF-7), colon (HCT-15), lung (A549) and pancreatic (BxPC3) carcinoma cell lines together with melanoma (A375) cells were obtained from American Type Culture Collection (ATCC, Rockville, MD). The human ovarian cancer cell line 2008 and its cisplatin resistant variant, C13*, were kindly provided by Prof. G. Marverti (Department of Biomedical Science of Modena University, Italy). Human cervical carcinoma (A431) cells were kindly provided by Prof. F. Zunino (Division of Experimental Oncology B, Istituto Nazionale dei Tumori, Milan, Italy). Cell lines were maintained in the logarithmic phase at 37 °C in a 5% carbon dioxide atmosphere using the following culture media containing 10% fetal calf serum (Euroclone, Milan, Italy), antibiotics (50 units/mL penicillin and 50 μg/mL streptomycin) and 2 mM L-glutamine: (i) RPMI-1640 medium (Euroclone) for 2008, C13*, MCF-7, HCT-15, A431 and BxPC3 cells, (ii) F-12 HAM’S (Sigma Chemical Co.) for A549 cells, iii) DMEM (Sigma Chemical Co.) for A375 cells.
(§4) The growth inhibitory effect toward tumor cells was evaluated by means of the MTT assay. Briefly, (3–8) × 10^3 cells/well, dependent upon the growth characteristics of the cell line, were seeded in 96-well microplates in growth medium (100 μL). After 24 h, the medium was removed and replaced with fresh medium containing the compound to be studied at the appropriate concentration. Triplicate cultures were established for each treatment. After 24, 48, or 72 h, each well was treated with 10 μL of a 5 mg/mL MTT saline solution and, after 5 h of incubation, 100 μL of a sodium dodecylsulfate (SDS) solution in 0.01 M HCl was added. After an overnight incubation, cell growth inhibition was detected by measuring the absorbance of each well at 570 nm using a Bio-Rad 680 microplate reader. The mean absorbance for each drug dose was expressed as a percentage of the control, untreated well absorbance and plotted vs drug concentration. The IC50 values, the drug concentrations that decrease the mean absorbance at 570 nm to 50% of that of untreated control wells, were calculated from the dose–response curves with the four-parameter logistic model (4PL). The final value is the mean ± S.D. of at least three independent experiments performed in triplicate.

[2] = tested on: HCT-15 colon carcinoma cells; experiment: MTT cytotoxicity test, HCT-15; format: cell-based, human; conditions: HCT-15, 72 h, MTT, ± S.D.
Experimental: as §1, §2, §3, §4

[3] = tested on: MCF-7 breast carcinoma cells; experiment: MTT cytotoxicity test, MCF-7; format: cell-based, human; conditions: MCF-7, 72 h, ± S.D.
Experimental: as §1, §2, §3, §4

[4] = tested on: A431 cervical carcinoma cells; experiment: MTT cytotoxicity test, A431; format: cell-based, human; conditions: A431, 72 h, ± S.D.
Experimental: as §1, §2, §3, §4

[5] = tested on: A549 lung carcinoma cells; experiment: cells; conditions: A549, 72 h, MTT, ± S.D.
Experimental: as §1, §2, §3, §4

A375 melanoma cells [6] = experiment: MTT cytotoxicity test, A375; format: cell-based, human; conditions: A375, 72 h, ± S.D.
Experimental: as §1, §2, §3, §4

[7] = tested on: 2008 ovarian cancer cells; experiment: MTT cytotoxicity test, cisplatin-sensitive 2008; format: cell-based, human; conditions: 2008 cisplatin-sensitive, 72 h, ± S.D.
Experimental: The cytotoxic properties of the complexes were also evaluated in a pair of tumor cell lines suitably selected for their sensitivity and resistance to cisplatin (adenocarcinoma cells 2008/C13^*). Cross-resistance profiles were evaluated by means of the resistance factor (RF), defined as the ratio between IC50 values calculated for the resistant cells and those obtained with the sensitive ones (Table 2). The phenomenon of cisplatin resistance is multifactorial in nature. Nevertheless, the main molecular mechanisms involved in drug resistance in C13* cancer cells have largely been identified. Indeed, in this cell line resistance is correlated to high cellular glutathione and thioredoxin reductase levels, reduced cellular drug uptake and enhanced repair of DNA damage. […] The RF values calculated for all derivatives were six- to nine-fold lower than that of cisplatin, clearly indicating the absence of cross-resistance.
as §2
Triplicate cultures were established for each treatment.

[8] = tested on: C13* cisplatin-resistant ovarian cancer cells; experiment: MTT cytotoxicity test, cisplatin-resistant C13*; format: cell-based, human
Experimental: The cytotoxic properties of the complexes were also evaluated in a pair of tumor cell lines suitably selected for their sensitivity and resistance to cisplatin (adenocarcinoma cells 2008/C13^*). Cross-resistance profiles were evaluated by means of the resistance factor (RF), defined as the ratio between IC50 values calculated for the resistant cells and those obtained with the sensitive ones (Table 2). The phenomenon of cisplatin resistance is multifactorial in nature.
as §2, §3, §4

[9] = Log P octanol/water, shake flask method with ICP-MS; format: physicochemical; conditions: n-octanol / 0.9% NaCl water, Pt by ICP-MS
Experimental: Partition coefficients (logP values) for octanol/water partition were determined in order to examine whether a correlation exists between lipophilicity and accumulation into cells. The log P values obtained (Table 3) give the trend in lipophilicity as mono indole acid complex < succinate complex < acetate complex < bis indole acid complex < benzoate complex for both the IAA and the IPA series.
The logP values of the Pt(IV) compounds were determined using the shake flask method. The respective Pt(IV) complex was dissolved in 0.9% NaCl (w/v) ultrapure water (presaturated with n-octanol). The solutions were sonicated and filtered to remove undissolved Pt(IV) compounds. The initial Pt concentrations were determined by ICP-MS. Subsequently, the Pt(IV) solutions were added to an equal volume of n-octanol (presaturated with 0.9% NaCl (w/v) ultrapure water). The heterogeneous mixtures were shaken vigorously for 30 min before centrifuging at 4000 rpm for 30 min to achieve phase separation. The final Pt concentration in the aqueous phase was determined again by ICP-MS. The logarithm of the ratio of Pt concentrations in the organic and aqueous phases was calculated to determine the logP values. All experiments were done in duplicate.

[10] = tested on: panel of human tumor cell lines (BxPC3, HCT-15, MCF-7, A431, A549, A375); experiment: MTT cytotoxicity, mean over panel of human tumor cell lines; format: cell-based; conditions: mean over the six cell lines of Table 1, 72 h
Experimental: as §1, §4

[11] = Stability in physiological saline by mass spectrometry; format: physicochemical; conditions: 0.9% NaCl
Experimental: Ten indole carboxylic acid Pt(IV) complexes with IAA (indole-3-acetic acid, 1A–5A) and IPA (indole-3-propionic acid, 1P–5P) were synthesized and the structures are depicted in Fig. 3. The monocarboxylato complexes 1A and 1P were prepared by reacting oxoplatin, c,c,t-[Pt(NH3)2Cl2(OH)2], with 0.8 eq. of the activated NHS-ester of the corresponding indole carboxylic acid. The dicarboxylato complexes with two indole acids in axial position (2A and 2P) were obtained using an excess of the NHS-ester activated acid (20 eq.), since the second hydroxo group of oxoplatin is much less reactive than the first one. The unsymmetrically substituted complexes (3A–5A and 3P–5P) were prepared by reaction of the monocarboxylate complexes 1A and 1P with the corresponding anhydrides. We chose three different anhydrides (benzoic, acetic and succinic anhydride) to vary the lipophilicity of the resulting Pt(IV) complexes. All the synthesized Pt(IV) complexes were characterized using elemental analysis, ESI-MS, FT-IR, ^1H and ^195Pt NMR spectroscopy. The purity of the complexes has been assessed through elemental analysis and–where solubility was not an issue–by high performance liquid chromatography (HPLC). The dicarboxylato complexes are poorly soluble in organic solvents. The proton NMR spectra of the complexes in DMSO-d6 show the typical signal of the NH3 protons which is a multiplet at around 6 ppm for the monocarboxylato complexes 1P and 1A (typical ^1JNH and ^2JPtH values around 50 Hz) while it is a broad signal around 6.5 ppm for the bis-substituted complexes (2–5A and 2–5P, Supplementary Information)[44]. The mass spectra of the complexes show a peak in the negative mode with the typical platinum isotope pattern corresponding to M − H^− or M + Cl^−. Stability studies on representative examples of the complexes (1A, 1P, 3A and 3P) via mass spectrometry confirm that the complexes are stable in physiological saline (0.9% NaCl) for at least 48 h (Supplementary Information).
Complexes 1A, 1P, 3A and 3P where dissolved in a minimum amount of DMF and diluted 1:20 with physiological saline (0.9% NaCl). Mass spectra were recorded at t = 0 and after 48 hours.

A375 melanoma cells [12] = experiment: Cellular accumulation of Pt (GF-AAS); format: cell-based, human; conditions: A375, 1.5 and 3 μM, 6 and 24 h

SMILES: [NH2][Pt]([NH2])([Cl])([Cl])([O]C(=O)CCc1c[nH]c2ccccc12)[O]C(=O)c1ccccc1 [Complex 3P]
- IC50 [1]: 2920 ± 1130 nM
- IC50 [2]: 5940 ± 630 nM
- IC50 [3]: 2280 ± 460 nM
- IC50 [4]: 2000 ± 320 nM
- IC50 [5]: 960 ± 60 nM
- IC50 (A375 melanoma cells [6]): 1510 ± 1250 nM
- IC50 [7]: 4790 ± 690 nM
- IC50 ([8]; C13* cisplatin-resistant, 72 h, MTT, ± S.D.): 1470 ± 680 nM
- RF (resistance factor) ([8]; IC50 resistant (C13*) / parent line (2008)): 0.3
- Log P (octanol/water) [9]: −0.028 ± 0.07
- IC50 [10]: 2600 nM
- stable in physiological saline [11]: at least 48 h
- cellular platinum accumulation (in words) (A375 melanoma cells [12]): internalized most efficiently
